Among the test systems are SK-OV-3; HCC 2998; PC-3; HOP-62; MCF7; SF-539; OVCAR-5; UACC-62; SNB-75; HOP-92; UO-31; HCT-15; NCI-H460; CCRF-CEM; NCI/ADR-RES; Malme-3M; BT-549; SK-MEL-2; OVCAR-3; SK-MEL-5.
Test in all cases: growth of human tumour cells (NCI), 48 h

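Cultured in 96-well plates, cells were exposed to test compound for 48 hours across five concentrations. Here, GI50 denotes the concentration required for 50% inhibition of growth.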 The source made the active and inactive calls. Rule as the data show it: active = GI50 up to about 1.1 µM and inactive = higher.

For `O=C(/C=C/c1ccc(OCc2ccccc2)cc1)NCc1ccc(C(=O)NCCc2c[nH]c3ccccc23)cc1`, the GI50 was 15.7 µM (inactive) in the test on SK-OV-3; 43.2 µM (inactive) in the test on HCC 2998; 12 µM (inactive) with PC-3; 3.66 µM (inactive) in the test on HOP-62; 17.1 µM (inactive) with MCF7; 2.67 µM (inactive) in the test on SF-539. Further, the GI50 with OVCAR-5 is 18.2 µM (inactive); with UACC-62, 15.5 µM (inactive); in the test on SNB-75 it was 8.3 µM (inactive); with HOP-92 it was 21 µM (inactive); in the test on UO-31 it was 35 µM (inactive); in the test with HCT-15 it was more than 94 µM. Besides, the GI50 in the test on NCI-H460 was 15.4 µM (inactive); in the test with CCRF-CEM it was 70.6 µM (inactive); with NCI/ADR-RES, > 100 µM (inactive); in the test on Malme-3M, 12.9 µM (inactive); with BT-549, 66.1 µM (inactive); in the test on SK-MEL-2 it was 31 µM (inactive). The GI50 with OVCAR-3 is 29 µM (inactive); with SK-MEL-5, 17.8 µM (inactive).

`CC12CC1C(c1cccc([N+](=O)[O-])c1)(c1cccc([N+](=O)[O-])c1)N=N2` (stereo not given): the GI50 with SK-OV-3 was > 100 µM (inactive); with HCC 2998, 34.5 µM (inactive); in the test with PC-3, 25 µM (inactive); with HOP-62 it was > 100 µM (inactive); with MCF7, 35.6 µM (inactive); in the test on SF-539, 25.5 µM (inactive). For the same compound, the GI50 in the test on OVCAR-5 is 53.3 µM (inactive); in the test with UACC-62, 15.9 µM (inactive); in the test on SNB-75 it was 24.6 µM (inactive); with HOP-92, 14.1 µM (inactive); in the test on UO-31, 10.8 µM (inactive); in the test with HCT-15, 20.4 µM. The GI50 in the test on NCI-H460 was 27.4 µM (inactive); with CCRF-CEM, 3.36 µM (inactive); in the test with NCI/ADR-RES, 22.9 µM (inactive); with Malme-3M, 18.2 µM (inactive); in the test with BT-549, 18.5 µM (inactive); in the test with SK-MEL-2 it was 44.7 µM (inactive). The GI50 is 27.4 µM (inactive) in the test on OVCAR-3 and 26.8 µM (inactive) in the test with SK-MEL-5.

Source of the values: ChEMBL document CHEMBL1201862, “PubChem BioAssay data set” (2004).
